Experimental findings from patent US10723741B1, “DNA polymerase IIIC inhibitors and use thereof” (Acurx Pharmaceuticals, LLC, priority 2018, dated 2020) are described below.

Holding throughout (assay type): cell-based
Assay [1] relates to Streptococcus pneumoniae ATCC 49619. Description: Broth microdilution MIC, S. pneumoniae ATCC 49619. To be noted: ATCC49619, broth microdilution, 37° C., 20 hours, read-out: MIC S. pneumoniae ATCC 49619. The procedure, abridged: (§1)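 Two-fold dilutions from 64 to 0.0625 μg/ml final, 1% DMSO, were inoculated at ~5.0×10^5 cfu/ml in the strain's test medium and kept 20 h at 37 °C in ambient atmosphere. Colonies were grown on MHA, with S. pneumoniae on blood agar under 5% CO2.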
On the technique in general: In broth dilution the organism is exposed to a series of concentrations in liquid medium.

Assay [2] concerns Enterococcus faecium ATCC 700221 (VRE). In words: Broth microdilution MIC, E. faecium ATCC 700221 (VRE). Particulars: Enterococcus faecium; broth microdilution, 37° C., 20 hours; read-out: MIC E. faecium ATCC 700221 (VRE). The procedure, abridged:
as §1

For assay [3], the system named is Staphylococcus aureus ATCC 29213 (MSSA). In words: Broth microdilution MIC, S. aureus ATCC 29213 (MSSA). Particulars: broth microdilution, 37° C., 20 hours, read-out: MIC S. aureus ATCC 29213 (MSSA). A digest of the protocol:
as §1

In assay [4] the test system is Escherichia coli ATCC 25922. Description: Broth microdilution MIC, E. coli ATCC 25922 (MHIIB w & w/o 4 mM EDTA). To be noted: broth microdilution, 37° C., 20 hours; for MIC: Escherichia coli, ATCC25922, without EDTA, read-out: MIC E. coli ATCC 25922; for MIC E. coli ATCC 25922 + 4 mM EDTA: with 4 mM EDTA. The procedure, abridged:
as §1

Assay [5] deals with Bacillus subtilis ATCC 6633. Description: Broth microdilution MIC, B. subtilis ATCC 6633. To be noted: ATCC6633, broth microdilution, 37° C., 20 hours, read-out: MIC B. subtilis ATCC 6633. The procedure, abridged:
as §1

Assay [6] concerns Enterococcus faecalis ATCC 29212. Description: Broth microdilution MIC, E. faecalis ATCC 29212. Particulars: ATCC29212, broth microdilution, 37° C., 20 hours, read-out: MIC E. faecalis ATCC 29212. A digest of the protocol: as §1
Assay [7] deals with Staphylococcus aureus NRS384 (MRSA). In words: Broth microdilution MIC, S. aureus NRS384 (MRSA). To be noted: Staphylococcus aureus; broth microdilution, 37° C., 20 hours; read-out: MIC NRS 384 (MRSA). A digest of the protocol:
as §1

Each structure is given as a SMILES string. Values after ≈ are worked out from the molar mass of the structure shown.

The MIC is the lowest concentration found to suppress growth.

With `O=c1[nH]c(NCc2ccc(Cl)c(Cl)c2)nc2cnn(CCc3ncccn3)c12` [Compound 117, 5-((3,4-Dichlorobenzyl)amino)-1-(2-(pyrimidin-2-yl)ethyl)-1H-pyrazolo[4,3-d]pyrimidin-7(6H)-one], the MIC is 4 µg/mL (≈ 9.61 µM) in assay [1]; 4 µg/mL (≈ 9.61 µM) in assay [2]; 8 µg/mL (≈ 19.2 µM) in assay [3]; greater than 64 µg/mL in assay [4]; 2 µg/mL (≈ 4.8 µM) in assay [5]; 8 µg/mL (≈ 19.2 µM) in assay [6]. Also, the MIC in assay [7] came out at 8 µg/mL (≈ 19.2 µM). Besides, the “MIC E. coli ATCC 25922 + 4 mM EDTA” value in assay [4] was greater than 64 µg/mL.

Take `Cl.O=c1[nH]c(NCc2ccc(Cl)c(Cl)c2)nc2cnn(CCN3CCC(O)CC3)c12` [Compound 65, 5-((3,4-Dichlorobenzyl)amino)-1-(2-(4-hydroxypiperidin-1-yl)ethyl)-1H-pyrazolo[4,3-d]pyrimidin-7(6H)-one hydrochloride]: the MIC in assay [1] is 4 µg/mL; in assay [2], 8 µg/mL; in assay [3] it was 16 µg/mL; in assay [4] it was greater than 64 µg/mL; in assay [5], 4 µg/mL; in assay [6] it was 8 µg/mL. Besides, the MIC in assay [7] turned out to be 16 µg/mL. Also, in assay [4], the “MIC E. coli ATCC 25922 + 4 mM EDTA” value was 64 µg/mL.

`Cn1nc(C(=O)O)c2nc(NCc3ccc(Cl)c(Cl)c3)[nH]c(=O)c21` [Compound 41, 5-((3,4-dichlorobenzyl)amino)-1-methyl-7-oxo-6,7-dihydro-1H-pyrazolo[4,3-d]pyrimidine-3-carboxylic acid]: the MIC in assay [1], in assay [2], in assay [3], in assay [4], in assay [5] and in assay [6] was greater than 64 µg/mL in each case. The MIC in assay [7] was greater than 64 µg/mL. Further, in assay [4], the “MIC E. coli ATCC 25922 + 4 mM EDTA” value is recorded as greater than 64. ug/ml.

As for `CN(C)C(CO)C(=O)N1CCC(n2ncc3nc(NCc4ccc(Cl)c(Cl)c4)[nH]c(=O)c32)CC1.Cl` (stereo not drawn) [Compound 279, 5-((3,4-dichlorobenzyl)amino)-1-(1-(2-(dimethylamino)-3-hydroxypropanoyl)piperidin-4-yl)-1H-pyrazolo[4,3-d]pyrimidin-7(6H)-one hydrochloride], the MIC in assay [1] was 4 µg/mL; in assay [2] it was 16 µg/mL; in assay [3], 32 µg/mL; in assay [4], greater than 64 µg/mL; in assay [5], 4 µg/mL; in assay [6], 16 µg/mL. In addition, in assay [7], the MIC stood at 32 µg/mL. For the same compound, the “MIC E. coli ATCC 25922 + 4 mM EDTA” value in assay [4] is greater than 64 µg/mL.

On to `CC(C)n1cc2nc(NCc3ccc(Cl)c(Cl)c3)[nH]c(=O)c2n1` [Compound 132, 5-((3,4-Dichlorobenzyl)amino)-2-isopropyl-2H-pyrazolo[4,3-d]pyrimidin-7(6H)-one], for which the minimal inhibitory concentration (MIC) in assay [1] was 16 µg/mL (≈ 45.4 µM); in assay [2], 16 µg/mL (≈ 45.4 µM); in assay [3], greater than 64 µg/mL; in assay [4], greater than 64 µg/mL; in assay [5], 8 µg/mL (≈ 22.7 µM); in assay [6], greater than 64 µg/mL. Moreover, the MIC in assay [7] was greater than 64 µg/mL. The “MIC E. coli ATCC 25922 + 4 mM EDTA” value in assay [4] is greater than 64 µg/mL.

As for `COCCCCCn1cc2nc(NCc3ccc(Cl)c(Cl)c3)[nH]c(=O)c2n1` [Compound 133, 5-((3,4-Dichlorobenzyl)amino)-2-(5-methoxypentyl)-2H-pyrazolo[4,3-d]pyrimidin-7(6H)-one], the MIC in assay [1] was 16 µg/mL (≈ 39 µM); in assay [2] it was 64 µg/mL (≈ 156 µM); in assay [3], greater than 64 µg/mL; in assay [4], greater than 64 µg/mL; in assay [5], 8 µg/mL (≈ 19.5 µM); in assay [6], greater than 64 µg/mL. The MIC in assay [7] was greater than 64 µg/mL. Besides, the “MIC E. coli ATCC 25922 + 4 mM EDTA” value in assay [4] was greater than 64 µg/mL.

On to `O=c1[nH]c(NCc2ccc(Cl)c(Cl)c2)nc2cnn(C[C@H]3NC[C@H](O)[C@@H](O)[C@@H]3O)c12` [Compound 96, 5-((3,4-Dichlorobenzyl)amino)-1-(((2R,3R,4R,5 S)-3,4,5-trihydroxypiperidin-2-yl)methyl)-1H-pyrazolo[4,3-d]pyrimidin-7(6H)-one], for which the MIC in assay [1] is 64 µg/mL (≈ 141 µM); in assay [2], 64 µg/mL (≈ 141 µM); in assay [3] it was greater than 64 µg/mL; in assay [4] it was greater than 64 µg/mL; in assay [5], greater than 64 µg/mL; in assay [6], greater than 64 µg/mL. Moreover, the MIC in assay [7] is greater than 64 µg/mL. Besides, in assay [4], the “MIC E. coli ATCC 25922 + 4 mM EDTA” value came to 32 µg/mL.

With `Cn1ncc2nc(NCc3nc(Cl)c(Cl)[nH]3)[nH]c(=O)c21` [Compound 37, 5-(((4,5-Dichloro-1H-imidazol-2-yl)methyl)amino)-1-methyl-1H-pyrazolo[4,3-d]pyrimidin-7(6H)-one], the MIC in assay [1], in assay [2], in assay [3], in assay [4], in assay [5] and in assay [6] was greater than 64 µg/mL in each case. Further, in assay [7], the MIC was greater than 64 µg/mL. For the same compound, the “MIC E. coli ATCC 25922 + 4 mM EDTA” value in assay [4] was greater than 64 µg/mL.

As to `O=C(O)CCCn1ncc2nc(NCc3ccc(Cl)c(Cl)c3)[nH]c(=O)c21` [Compound 145, 4-(5-((3,4-Dichlorobenzyl)amino)-7-oxo-6,7-dihydro-1H-pyrazolo[4,3-d]pyrimidin-1-yl)butanoic acid], the MIC is 16 µg/mL (≈ 40.4 µM) in assay [1]; 16 µg/mL (≈ 40.4 µM) in assay [2]; 64 µg/mL (≈ 162 µM) in assay [3]; greater than 64 µg/mL in assay [4]; 32 µg/mL (≈ 80.8 µM) in assay [5]; 64 µg/mL (≈ 162 µM) in assay [6]. In addition, in assay [7], the minimal inhibitory concentration (MIC) is 64 µg/mL (≈ 162 µM). Besides, the “MIC E. coli ATCC 25922 + 4 mM EDTA” value in assay [4] is greater than 64 µg/mL.

`O=C(O)CCCCn1nc(F)c2nc(NCc3ccc(Cl)c(Cl)c3)[nH]c(=O)c21` [Compound 209, 5-(5-((3,4-dichlorobenzyl)amino)-3-fluoro-7-oxo-6,7-dihydro-1H-pyrazolo[4,3-d]pyrimidin-1-yl)pentanoic acid]: the MIC in assay [1] is 4 µg/mL (≈ 9.34 µM); in assay [2], 1 µg/mL (≈ 2.34 µM); in assay [3] it was 8 µg/mL (≈ 18.7 µM); in assay [4], greater than 64 µg/mL; in assay [5] it was 4 µg/mL (≈ 9.34 µM); in assay [6], 4 µg/mL (≈ 9.34 µM). Further, in assay [7], the MIC is 16 µg/mL (≈ 37.4 µM). In addition, the “MIC E. coli ATCC 25922 + 4 mM EDTA” value in assay [4] is greater than 64 µg/mL.

For the compound `Cn1ncc2nc(NCc3cccnc3)[nH]c(=O)c21` [Compound 5, 1-Methyl-5-(3-pyridylmethylamino)-6H-pyrazolo[4,3-d]pyrimidin-7-one], the MIC in assay [1], in assay [2], in assay [3], in assay [4], in assay [5] and in assay [6] was greater than 64 µg/mL in each case. Further, in assay [7], the MIC was greater than 64 µg/mL. In addition, the “MIC E. coli ATCC 25922 + 4 mM EDTA” value in assay [4] is greater than 64 µg/mL.

`Cl.O=C(O)c1ccc(OCCn2ncc3nc(NCc4ccc(Cl)c(Cl)c4)[nH]c(=O)c32)cn1` [Compound 175, 5-(2-(5-((3,4-dichlorobenzyl)amino)-7-oxo-6,7-dihydro-1H-pyrazolo[4,3-d]pyrimidin-1-yl)ethoxy)picolinic acid hydrochloride]: the MIC in assay [1], in assay [2], in assay [3], in assay [4], in assay [5] and in assay [6] was greater than 64 µg/mL throughout. For the same compound, the MIC in assay [7] was greater than 64 µg/mL. The “MIC E. coli ATCC 25922 + 4 mM EDTA” value in assay [4] was greater than 64 µg/mL.

For `Cc1cccnc1C(=O)N1CCC(n2ncc3nc(NCc4ccc(Cl)c(Cl)c4)[nH]c(=O)c32)CC1.Cl` [Compound 262, 5-((3,4-Dichlorobenzyl)amino)-1-(1-(3-methylpicolinoyl)piperidin-4-yl)-1H-pyrazolo[4,3-d]pyrimidin-7(6H)-one hydrochloride], the MIC is 4 µg/mL in assay [1]; 2 µg/mL in assay [2]; 4 µg/mL in assay [3]; greater than 64 µg/mL in assay [4]; 1 µg/mL in assay [5]; 4 µg/mL in assay [6]. In assay [7], the MIC came out at 4 µg/mL. Also, in assay [4], the “MIC E. coli ATCC 25922 + 4 mM EDTA” value was greater than 64 µg/mL.

Regarding `C[C@H](O)Cn1ncc2nc(NCc3ccc(Cl)c(Cl)c3)[nH]c(=O)c21` [Compound 240, (S)-5-((3,4-dichlorobenzyl)amino)-1-(2-hydroxypropyl)-1H-pyrazolo[4,3-d]pyrimidin-7(6H)-one], the MIC in assay [1] was 4 µg/mL (≈ 10.9 µM); in assay [2] it was 4 µg/mL (≈ 10.9 µM); in assay [3], 4 µg/mL (≈ 10.9 µM); in assay [4] it was greater than 64 µg/mL; in assay [5], 2 µg/mL (≈ 5.43 µM); in assay [6], 8 µg/mL (≈ 21.7 µM). Further, in assay [7], the MIC was determined as 4 µg/mL (≈ 10.9 µM). The “MIC E. coli ATCC 25922 + 4 mM EDTA” value in assay [4] was greater than 64 µg/mL.

For `Cl.Cl.O=c1[nH]c(NCc2ccc(Cl)c(Cl)c2)nc2cnn(CCN3CCN(CCO)CC3)c12` [Compound 71, 5-((3,4-Dichlorobenzyl)amino)-1-(2-(4-(2-hydroxyethyl)piperazin-1-yl)ethyl)-1H-pyrazolo[4,3-d]pyrimidin-7(6H)-one dihydrochloride], the MIC in assay [1] is 4 µg/mL; in assay [2], 16 µg/mL; in assay [3] it was 32 µg/mL; in assay [4] it was greater than 64 µg/mL; in assay [5], 4 µg/mL; in assay [6] it was 32 µg/mL. Moreover, in assay [7], the MIC is 64 µg/mL. Further, in assay [4], the “MIC E. coli ATCC 25922 + 4 mM EDTA” value is greater than 64 µg/mL.
